Experimental data: ChEMBL document CHEMBL4811295, “The ester derivatives obtained by C-ring modification of podophyllotoxin induce apoptosis and inhibited proliferation in PC-3M cells via down-regulation of PI3K/Akt signaling pathway” (Bioorg Med Chem Lett, 2021)

What was measured:
Type in all cases: functional, cell-based
PC-3M = assay: Cytotoxicity in human PC-3M cells assessed as inhibition of cell proliferation measured by CCK-8 assay
HepG2 = assay: Cytotoxicity in human HepG2 cells assessed as inhibition of cell proliferation measured by CCK-8 assay
HMEC = assay: Cytotoxicity in human HMEC cells assessed as inhibition of cell proliferation measured by CCK-8 assay
A549 = assay: Cytotoxicity in human A549 cells assessed as inhibition of cell proliferation measured by CCK-8 assay
MCF7 = assay: Cytotoxicity in human MCF7 cells assessed as inhibition of cell proliferation measured by CCK-8 assay

| SMILES | IC50 (PC-3M) [nM] | IC50 (HepG2) [nM] | IC50 (HMEC) [nM] | IC50 (A549) [nM] | IC50 (MCF7) [nM] |
| --- | --- | --- | --- | --- | --- |
| COc1cc([C@@H]2c3cc4c(cc3[C@H](OC(=O)[C@H](CCSC)NC(=O)OC(C)(C)C)[C@H]3COC(=O)[C@H]23)OCO4)cc(OC)c1OC | 5.11 | 51000 | 2600 | 1030 | 93100 |
| COc1cc([C@@H]2c3cc4c(cc3[C@H](OC(=O)[C@H](Cc3c[nH]c5ccccc35)NC(=O)OC(C)(C)C)[C@H]3COC(=O)[C@H]23)OCO4)cc(OC)c1OC | 6.07 | > 200000 | 1800 | 314 | > 200000 |
| COc1cc([C@@H]2c3cc4c(cc3[C@H](OC(=O)[C@H](Cc3ccccc3)NC(=O)OC(C)(C)C)[C@H]3COC(=O)[C@H]23)OCO4)cc(OC)c1OC | 20.1 | > 200000 | 2460 | 23.4 | 72400 |
| COc1cc([C@@H]2c3cc4c(cc3[C@H](OC(=O)[C@H](CC(C)C)NC(=O)OC(C)(C)C)[C@H]3COC(=O)[C@H]23)OCO4)cc(OC)c1OC | 8.98 | 60300 | 2360 | 6440 | 140000 |
| CCCCCCCCCCCCCCCC(=O)O[C@H]1c2cc3c(cc2[C@@H](c2cc(OC)c(OC)c(OC)c2)[C@H]2C(=O)OC[C@@H]21)OCO3 | 2300 | 117000 | 5380 | 4590 | > 200000 |
| COc1cc([C@@H]2c3cc4c(cc3[C@H](OC(=O)c3ccncc3)[C@H]3COC(=O)[C@H]23)OCO4)cc(OC)c1OC [4-O-PODOPHYLLOTOXINYL-ISONICOTINATE] | 92.6 | 188000 | 3720 | 16.3 | > 200000 |
| COc1cc([C@@H]2c3cc4c(cc3[C@H](OC(=O)c3ccc(Br)s3)[C@H]3COC(=O)[C@H]23)OCO4)cc(OC)c1OC | 619 | 33900 | 1770 | 504 | > 200000 |
| C/C=C/C=C/C(=O)O[C@H]1c2cc3c(cc2[C@@H](c2cc(OC)c(OC)c(OC)c2)[C@H]2C(=O)OC[C@@H]21)OCO3 | 1100 | 2340 | 424 | 143 | 127000 |
| COc1cc([C@@H]2c3cc4c(cc3[C@H](OC(=O)CN(C)C(=O)OC(C)(C)C)[C@H]3COC(=O)[C@H]23)OCO4)cc(OC)c1OC | 13.2 | – | 27800 | 43 | – |
| C/C=C/C(=O)O[C@H]1c2cc3c(cc2[C@@H](c2cc(OC)c(OC)c(OC)c2)[C@H]2C(=O)OC[C@@H]21)OCO3 | 12.4 | 109000 | 79.5 | 40.2 | 80900 |
